Experiment [1] deals with human recombinant BACE2 (Homo sapiens (Human), UniProt Q9Y5Z0). Kind of experiment: In vitro enzymatic BACE2 FRET assay. Format: biochemical. The settings on record: read-out: BACE2 Enzyme IC50.
In experiment [2] the target is Cathepsin D (CatD) (Homo sapiens (Human), UniProt P07339). Kind of experiment: In vitro enzymatic Cathepsin D (CatD) FRET assay. Format: biochemical. The settings on record: read-out: Cat D Enzyme IC50.
Experiment [3] addresses T1, BACE1 (Homo sapiens (Human), UniProt P56817). Kind of experiment: In vitro BACE1 cell-based assay (Aβ40 in conditioned medium of cells stably expressing APP, HTRF). The settings on record: Aβ40 in conditioned media after 24 h incubation.
Target sequence in this assay (P56817 46-501, species assumed): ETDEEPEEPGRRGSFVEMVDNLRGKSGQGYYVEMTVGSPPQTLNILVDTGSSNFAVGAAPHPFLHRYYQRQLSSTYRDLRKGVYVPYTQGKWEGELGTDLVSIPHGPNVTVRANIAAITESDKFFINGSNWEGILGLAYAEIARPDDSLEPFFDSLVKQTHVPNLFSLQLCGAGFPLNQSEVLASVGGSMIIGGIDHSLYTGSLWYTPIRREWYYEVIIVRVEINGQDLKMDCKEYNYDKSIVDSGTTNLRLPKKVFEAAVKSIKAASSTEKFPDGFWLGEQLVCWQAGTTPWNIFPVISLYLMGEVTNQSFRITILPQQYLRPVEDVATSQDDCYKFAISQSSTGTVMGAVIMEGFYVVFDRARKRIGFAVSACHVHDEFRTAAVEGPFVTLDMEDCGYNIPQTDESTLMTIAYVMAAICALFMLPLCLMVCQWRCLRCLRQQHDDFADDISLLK
The target of experiment [4] is T1, BACE1. Kind of experiment: In vitro enzymatic BACE1 FRET assay. Format: biochemical. The settings on record: read-out: BACE1 Enzyme IC50.
Target sequence in this assay (P56817 46-501): as the sequence (P56817 46-501, species assumed) above

SMILES strings stand for the structures.

Broadly, the IC50 is the concentration that gives 50% inhibition.

Sequence of human recombinant BACE2 (Q9Y5Z0 63-518): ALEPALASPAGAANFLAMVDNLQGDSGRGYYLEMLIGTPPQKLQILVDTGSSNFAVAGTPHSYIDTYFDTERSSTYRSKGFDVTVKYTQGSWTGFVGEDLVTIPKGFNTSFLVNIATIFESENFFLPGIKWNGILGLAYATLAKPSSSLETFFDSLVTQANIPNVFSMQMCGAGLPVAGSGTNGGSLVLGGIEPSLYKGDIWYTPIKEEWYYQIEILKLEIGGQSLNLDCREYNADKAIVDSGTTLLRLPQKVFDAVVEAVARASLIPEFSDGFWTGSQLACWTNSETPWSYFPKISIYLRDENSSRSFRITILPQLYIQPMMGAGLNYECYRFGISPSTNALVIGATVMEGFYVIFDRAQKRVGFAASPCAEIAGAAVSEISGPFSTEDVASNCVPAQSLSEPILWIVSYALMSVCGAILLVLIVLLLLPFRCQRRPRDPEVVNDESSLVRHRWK
Sequence of Cathepsin D (CatD) (P07339 65-412, species assumed): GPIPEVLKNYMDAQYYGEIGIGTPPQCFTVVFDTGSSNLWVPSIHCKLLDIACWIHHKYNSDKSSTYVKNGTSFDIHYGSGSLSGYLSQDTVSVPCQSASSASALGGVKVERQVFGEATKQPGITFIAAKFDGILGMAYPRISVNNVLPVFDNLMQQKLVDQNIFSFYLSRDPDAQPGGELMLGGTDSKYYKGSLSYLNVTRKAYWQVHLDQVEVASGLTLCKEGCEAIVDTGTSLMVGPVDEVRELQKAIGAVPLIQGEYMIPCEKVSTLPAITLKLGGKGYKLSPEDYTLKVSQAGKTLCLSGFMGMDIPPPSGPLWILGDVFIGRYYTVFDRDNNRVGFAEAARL

`C[C@@]1(c2cc(/C=C(\F)c3ccc(C#N)cn3)ccc2F)CS(=O)(=O)C2(CCC2)C(N)=N1` [Example 103, (R,Z)-6-(2-(3-(9-amino-7-methyl-5,5-dioxido-5-thia-8-azaspiro[3.5]non-8-en-7-yl)-4-fluorophenyl)-1-fluorovinyl)nicotinonitrile]: the concentration for half-maximal inhibition (IC50) in experiment [1] was determined as 50 nM; in experiment [2], 94700 nM; in experiment [3], 39 nM; in experiment [4], 3 nM.
With `CN1C(N)=N[C@](C)(c2cc(/C=C(\F)c3ccc(Cl)cn3)ccc2F)CS1(=O)=O` [Example 104, (R,Z)-3-amino-5-(5-(2-(5-chloropyridin-2-yl)-2-fluorovinyl)-2-fluorophenyl)-2,5-dimethyl-5,6-dihydro-2H-1,2,4-thiadiazine 1,1-dioxide], the concentration for half-maximal inhibition (IC50) in experiment [1] came to 2 nM; in experiment [2], 95000 nM; in experiment [3] it was 24 nM; in experiment [4], 3 nM.
As for `CN1C(N)=N[C@](C)(c2cc(/C=C(\F)c3ccc(Br)cn3)cc(F)c2F)CS1(=O)=O` [Example 105, (R,Z)-3-amino-5-(5-(2-(5-bromopyridin-2-yl)-2-fluorovinyl)-2,3-difluorophenyl)-2,5-dimethyl-5,6-dihydro-2H-1,2,4-thiadiazine 1,1-dioxide], the concentration for half-maximal inhibition (IC50) stood at 9 nM in experiment [1], 35800 nM in experiment [2], 23 nM in experiment [3] and 12 nM in experiment [4].
Regarding `CN1C(N)=N[C@](C)(c2cc(/C=C(\F)c3ccc(C#N)cn3)ccc2F)CS1(=O)=O` [Example 106, (R,Z)-6-(2-(3-(3-amino-2,5-dimethyl-1,1-dioxido-5,6-dihydro-2H-1,2,4-thiadiazin-5-yl)-4-fluorophenyl)-1-fluorovinyl)nicotinonitrile], the half-inhibitory concentration (IC50) in experiment [1] was 31 nM; in experiment [2], 182000 nM; in experiment [3] it was 2 nM; in experiment [4], 1 nM.
`CN1C(N)=N[C@](C)(c2cc(/C=C(\F)c3ccc(C#N)cn3)cc(F)c2F)CS1(=O)=O` [Example 107, (R,Z)-6-(2-(3-(3-amino-2,5-dimethyl-1,1-dioxido-5,6-dihydro-2H-1,2,4-thiadiazin-5-yl)-4,5-difluorophenyl)-1-fluorovinyl)nicotinonitrile]: the half-inhibitory concentration (IC50) in experiment [1] was found to be 25 nM; in experiment [2], 81800 nM; in experiment [3], 3 nM; in experiment [4], 3 nM.
`C#CCOc1cnc(/C(F)=C/c2ccc(F)c([C@@]3(C)N=C(N)[C@@]4(CF)CC[C@@H]3S4(=O)=O)c2)cn1` [Example 108, (1R,4R,5S)-2-amino-4-(2-fluoro-5-((Z)-2-fluoro-2-(5-(prop-2-yn-1-yloxy)pyrazin-2-yl)vinyl)phenyl)-1-(fluoromethyl)-4-methyl-8-thia-3-azabicyclo[3.2.1]oct-2-ene 8,8-dioxide]: the IC50 in experiment [1] amounted to 57 nM; in experiment [2], 145000 nM; in experiment [3], 6 nM; in experiment [4] it was 3 nM.
Taken in the same sequence, the figures for `C[C@]1(c2cc(/C=C(\F)c3cnc(OCC(F)(F)F)cn3)ccc2F)N=C(N)[C@@]2(CF)CC[C@@H]1S2(=O)=O` [Example 109, (1R,4R,5S)-2-amino-4-(2-fluoro-5-((Z)-2-fluoro-2-(5-(2,2,2-trifluoroethoxy)pyrazin-2-yl)vinyl)phenyl)-1-(fluoromethyl)-4-methyl-8-thia-3-azabicyclo[3.2.1]oct-2-ene 8,8-dioxide] were 167 nM, 135000 nM, 227 nM and 28 nM.
For the molecule `CN1C(N)=N[C@](C)(c2cc(/C=C(\F)C3CCOCC3)cc(F)c2F)CS1(=O)=O` [Example 110, (R,Z)-3-amino-5-(2,3-difluoro-5-(2-fluoro-2-(tetrahydro-2H-pyran-4-yl)vinyl)phenyl)-2,5-dimethyl-5,6-dihydro-2H-1,2,4-thiadiazine 1,1-dioxide], the half-inhibitory concentration (IC50) is 963 nM in experiment [1], 194000 nM in experiment [2], 631 nM in experiment [3] and 709 nM in experiment [4].
On to `CN1C(N)=N[C@](C)(c2cc(/C=C(\F)c3cnc(Cl)cn3)ccc2F)CS1(=O)=O` [Example 111, (R,Z)-3-amino-5-(5-(2-(5-chloropyrazin-2-yl)-2-fluorovinyl)-2-fluorophenyl)-2,5-dimethyl-5,6-dihydro-2H-1,2,4-thiadiazine 1,1-dioxide], for which the IC50 in experiment [1] was 5 nM; in experiment [2], 86300 nM; in experiment [3], 6 nM; in experiment [4], 7 nM.
For `CC1(C)C(N)=N[C@](C)(c2cc(/C=C(\F)c3ccc(C#N)cn3)ccc2F)CS1(=O)=O` [Example 113, (R,Z)-6-(2-(3-(5-amino-3,6,6-trimethyl-1,1-dioxido-3,6-dihydro-2H-1,4-thiazin-3-yl)-4-fluorophenyl)-1-fluorovinyl)nicotinonitrile], the concentration for half-maximal inhibition (IC50) in experiment [1] was 9 nM; in experiment [2], 100000 nM; in experiment [3], 4 nM; in experiment [4] it was 2 nM.
With `CC1(C)C(N)=N[C@](C)(c2cc(/C=C(\F)c3ccc(Cl)cn3)ccc2F)CS1(=O)=O` [Example 114, (R,Z)-5-amino-3-(5-(2-(5-chloropyridin-2-yl)-2-fluorovinyl)-2-fluorophenyl)-3,6,6-trimethyl-3,6-dihydro-2H-1,4-thiazine 1,1-dioxide], the half-inhibitory concentration (IC50) in experiment [1] worked out at 3 nM; in experiment [2] it was 115000 nM; in experiment [3], 80 nM; in experiment [4], 9 nM.
Consider `Cc1noc(COc2cnc(/C(F)=C/c3ccc(F)c([C@@]4(C)N=C(N)[C@@]5(CF)CC[C@@H]4S5(=O)=O)c3)cn2)n1` [Example 115, (1R,4R,5S)-2-amino-4-(2-fluoro-5-((Z)-2-fluoro-2-(5-((3-methyl-1,2,4-oxadiazazol-5-yl)methoxy)pyrazin-2-yl)vinyl)phenyl)-1-(fluoromethyl)-4-methyl-8-thia-3-azabicyclo[3.2.1]oct-2-ene 8,8-dioxide], for which the IC50 stood at 192 nM in experiment [1], 102000 nM in experiment [2], 27 nM in experiment [3] and 22 nM in experiment [4].
`CN1C(N)=N[C@](C)(c2cc(/C=C(\F)c3cnc(OCC(F)(F)F)cn3)ccc2F)CS1(=O)=O` [Example 117, (R,Z)-3-amino-5-(2-fluoro-5-(2-fluoro-2-(5-(2,2,2-trifluoroethoxy)pyrazin-2-yl)vinyl)phenyl)-2,5-dimethyl-5,6-dihydro-2H-1,2,4-thiadiazine 1,1-dioxide]: the IC50 in experiment [1] stood at 186 nM; in experiment [2], 29100 nM; in experiment [3] it was 148 nM; in experiment [4] it was 23 nM.
Taken in the same sequence, the figures for `C[C@]1(c2cc(/C=C(\F)c3cnc(OCC4CC4)cn3)ccc2F)N=C(N)[C@@]2(CF)CC[C@@H]1S2(=O)=O` [Example 118, (1R,4R,5S)-2-amino-4-(5-((Z)-2-(5-(cyclopropylmethoxy)pyrazin-2-yl)-2-fluorovinyl)-2-fluorophenyl)-1-(fluoromethyl)-4-methyl-8-thia-3-azabicyclo[3.2.1]oct-2-ene 8,8-dioxide] were 124 nM, greater than 400000 nM, 706 nM and 35 nM.
With `Cc1nnc(COc2cnc(/C(F)=C/c3ccc(F)c([C@@]4(C)N=C(N)[C@@]5(CF)CC[C@@H]4S5(=O)=O)c3)cn2)o1` [Example 119, (1R,4R,5S)-2-amino-4-(2-fluoro-5-((Z)-2-fluoro-2-(5-((5-methyl-1,3,4-oxadiazol-2-yl)methoxy)pyrazin-2-yl)vinyl)phenyl)-1-(fluoromethyl)-4-methyl-8-thia-3-azabicyclo[3.2.1]oct-2-ene 8,8-dioxide], the IC50 was 182 nM in experiment [1], greater than 400000 nM in experiment [2], 60 nM in experiment [3] and 21 nM in experiment [4].
As for `C[C@]1(c2cc(/C=C(\F)c3cnc(OCC(F)(F)C(F)F)cn3)ccc2F)N=C(N)[C@@]2(CF)CC[C@@H]1S2(=O)=O` [Example 120, (1R,4R,5S)-2-amino-4-(2-fluoro-5-((Z)-2-fluoro-2-(5-(2,2,3,3-tetrafluoropropoxy)pyrazin-2-yl)vinyl)phenyl)-1-(fluoromethyl)-4-methyl-8-thia-3-azabicyclo[3.2.1]oct-2-ene 8,8-dioxide], the IC50 in experiment [1] is 258 nM; in experiment [2], greater than 400000 nM; in experiment [3], 542 nM; in experiment [4], 37 nM.
The like results for `COc1cnc(/C(F)=C/c2ccc(F)c([C@@]3(C)N=C(N)[C@@]4(CF)CC[C@@H]3S4(=O)=O)c2)cn1` [Example 121, (1R,4R,5S)-2-amino-4-(2-fluoro-5-((Z)-2-fluoro-2-(5-methoxypyrazin-2-yl)vinyl)phenyl)-1-(fluoromethyl)-4-methyl-8-thia-3-azabicyclo[3.2.1]oct-2-ene 8,8-dioxide] were, in that order, 180 nM, greater than 400000 nM, 191 nM and 98 nM.
As for `CCOc1cnc(/C(F)=C/c2ccc(F)c([C@@]3(C)N=C(N)[C@@]4(CF)CC[C@@H]3S4(=O)=O)c2)cn1` [Example 122, (1R,4R,5S)-2-amino-4-(5-((Z)-2-(5-ethoxypyrazin-2-yl)-2-fluorovinyl)-2-fluorophenyl)-1-(fluoromethyl)-4-methyl-8-thia-3-azabicyclo[3.2.1]oct-2-ene 8,8-dioxide], the half-maximal inhibitory concentration (IC50) in experiment [1] was 194 nM; in experiment [2] it was greater than 400000 nM; in experiment [3], 527 nM; in experiment [4] it was 54 nM.
On to `CC1(C)C(N)=N[C@](C)(c2cc(/C=C(\F)c3cnc(OCC(F)(F)F)cn3)ccc2F)CS1(=O)=O` [Example 124, (R,Z)-5-amino-3-(2-fluoro-5-(2-fluoro-2-(5-(2,2,2-trifluoroethoxy)pyrazin-2-yl)vinyl)phenyl)-3,6,6-trimethyl-3,6-dihydro-2H-1,4-thiazine 1,1-dioxide], for which the IC50 in experiment [1] came out at 161 nM; in experiment [2], 218000 nM; in experiment [3], 134 nM; in experiment [4] it was 39 nM.

(Values after patent US11021493B2, “1,4-thiazine dioxide and 1,2,4-thiadiazine dioxide derivatives as beta-secretase inhibitors and methods of use” (AMGEN INC., priority 2016, dated 2021).)
